According to paper PMC7640924 (Bioorganic & Medicinal Chemistry Letters, 2020):

Tested on: SARS-CoV-2
Experiment: Anti-SARS-CoV-2 activity, cellular phenotypic screening
Type: cell-based
Conditions: Vero cells

SMILES | anti-SARS-CoV-2 activity (in words)
O=C(CN1C(C(=O)c2ccc(F)cc2)=C(O)c2ccccc2S1(=O)=O)Nc1ccccc1 [Compound 4a, 2-(3-(4-fluorobenzoyl)-4-hydroxy-1,1-dioxido-2H-benzo[e][1,2]thiazin-2-yl)-N-phenylacetamide] | no inhibitory effect
O=C(CN1C(C(=O)c2ccc(F)cc2)=C(O)c2ccccc2S1(=O)=O)Nc1ccccc1Cl [Compound 4b, N-(2-Chlorophenyl)-2-(3-(4-fluorobenzoyl)-4-hydroxy-1,1-dioxido-2H-benzo[e][1,2]thiazin-2-yl)acetamide] | no inhibitory effect
CCNC(=O)CN1C(C(=O)c2ccccc2)=C(O)c2ccccc2S1(=O)=O [Compound 4f, 2-(3-Benzoyl-4-hydroxy-1,1-dioxido-2H-benzo[e][1,2]thiazin-2-yl)-N-ethylacetamide] | detrimental for anti-SARS-CoV-2 activities
O=C(C1=C(O)c2ccccc2S(=O)(=O)N1Cc1ccccc1)c1ccccc1 [Compound 5a, (2-Benzyl-4-hydroxy-1,1-dioxido-2H-benzo[e][1,2]thiazin-3-yl)(phenyl)methanone] | no anti-SARS-CoV-2 activities
N#Cc1cccc(C(=O)C2=C(O)c3ccccc3S(=O)(=O)N2CC(=O)c2ccc(F)c(Cl)c2)c1 [Compound 5b, 3-(2-(2-(3-Chloro-4-fluorophenyl)-2-oxoethyl)-4-hydroxy-1,1-dioxido-2H-benzo[e][1,2]thiazine-3-carbonyl)benzonitrile] | no anti-SARS-CoV-2 activities
N#Cc1ccc(C(=O)C2=C(O)c3ccccc3S(=O)(=O)N2CC(=O)c2ccc(F)c(Cl)c2)cc1 [Compound 5c, 4-(2-(2-(3-Chloro-4-fluorophenyl)-2-oxoethyl)-4-hydroxy-1,1-dioxido-2H-benzo[e][1,2]thiazine-3-carbonyl)benzonitrile] | no anti-SARS-CoV-2 activities
O=C(O)/C=C/N1C(C(=O)c2ccc(F)c(Cl)c2)=C(O)c2ccccc2S1(=O)=O [Compound 7, (E)-3-(3-(3-Chloro-4-fluorobenzoyl)-4-hydroxy-1,1-dioxido-2H-benzo[e][1,2]thiazin-2-yl)acrylic acid] | no antiviral effect

Tested on: not listed separately
Experiment: Microsomal stability
Type: in vitro ADME
Conditions: human

SMILES | microsomal stability (in words)
O=C(CN1C(C(=O)c2ccc(F)c(Cl)c2)=C(O)c2ccc(F)cc2S1(=O)=O)Nc1ccc(C(F)(F)F)cc1 [Compound 13c, 2-(3-(3-Chloro-4-fluorobenzoyl)-7-fluoro-4-hydroxy-1,1-dioxido-2H-benzo[e][1,2]thiazin-2-yl)-N-(4-(trifluoromethyl)phenyl)acetamide] | good microsomal stability

Biological target: hERG (Homo sapiens, UniProt Q12809)
Experiment: hERG inhibition
Type: binding
Conditions: not given

hERG, sequence (Q12809 whole entry): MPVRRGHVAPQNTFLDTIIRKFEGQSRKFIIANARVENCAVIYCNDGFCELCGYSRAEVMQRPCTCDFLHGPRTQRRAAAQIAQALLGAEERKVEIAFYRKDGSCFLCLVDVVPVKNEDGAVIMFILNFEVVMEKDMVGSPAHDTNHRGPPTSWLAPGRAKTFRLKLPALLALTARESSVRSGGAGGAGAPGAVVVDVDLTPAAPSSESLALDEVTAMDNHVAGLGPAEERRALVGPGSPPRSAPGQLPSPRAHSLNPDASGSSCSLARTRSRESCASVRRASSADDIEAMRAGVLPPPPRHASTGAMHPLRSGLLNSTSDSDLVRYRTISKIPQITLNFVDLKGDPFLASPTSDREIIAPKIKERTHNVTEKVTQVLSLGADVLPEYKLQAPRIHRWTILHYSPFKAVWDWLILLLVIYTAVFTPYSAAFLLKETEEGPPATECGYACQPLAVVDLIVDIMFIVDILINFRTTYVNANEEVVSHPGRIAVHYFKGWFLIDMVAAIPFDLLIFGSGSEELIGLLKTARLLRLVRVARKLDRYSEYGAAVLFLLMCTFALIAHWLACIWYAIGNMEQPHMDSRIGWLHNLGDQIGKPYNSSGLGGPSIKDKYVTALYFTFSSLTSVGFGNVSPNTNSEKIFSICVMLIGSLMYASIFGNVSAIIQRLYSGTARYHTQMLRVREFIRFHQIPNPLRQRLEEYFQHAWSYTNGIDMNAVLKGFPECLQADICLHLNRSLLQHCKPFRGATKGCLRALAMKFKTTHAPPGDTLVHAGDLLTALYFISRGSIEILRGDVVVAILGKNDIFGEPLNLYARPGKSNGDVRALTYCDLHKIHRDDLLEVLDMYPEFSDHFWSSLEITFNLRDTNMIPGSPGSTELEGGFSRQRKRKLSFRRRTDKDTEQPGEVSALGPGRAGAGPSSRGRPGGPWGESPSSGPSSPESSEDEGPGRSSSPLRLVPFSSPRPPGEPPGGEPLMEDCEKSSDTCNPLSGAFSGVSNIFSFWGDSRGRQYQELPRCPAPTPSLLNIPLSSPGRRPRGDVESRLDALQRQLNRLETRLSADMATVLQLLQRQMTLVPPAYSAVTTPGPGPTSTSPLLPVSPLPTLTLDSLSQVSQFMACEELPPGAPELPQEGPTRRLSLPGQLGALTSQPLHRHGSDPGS

SMILES | hERG binding (in words)
O=C(CN1C(C(=O)c2ccc(F)c(Cl)c2)=C(O)c2ccc(F)cc2S1(=O)=O)Nc1ccc(C(F)(F)F)cc1 [Compound 13c, 2-(3-(3-Chloro-4-fluorobenzoyl)-7-fluoro-4-hydroxy-1,1-dioxido-2H-benzo[e][1,2]thiazin-2-yl)-N-(4-(trifluoromethyl)phenyl)acetamide] | low binding with hERG
